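Method: 48-hour compound exposure of cells in 96-well plates, five concentrations, linear interpolation of endpoints. GI50 is the concentration that inhibits growth by half. TGI: concentration producing complete growth inhibition.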
How the values were obtained:
Experiment in all cases: NCI-60 cell line screen, 48 h
786-0 renal = system: 786-0 renal
A549 NSCLC = system: A549 NSCLC
ACHN renal = system: ACHN renal
BT-549 breast = system: BT-549 breast
CAKI-1 renal = system: CAKI-1 renal
COLO 205 colon = system: COLO 205 colon
DU-145 prostate = system: DU-145 prostate
EKVX NSCLC = system: EKVX NSCLC
HCT-116 colon = system: HCT-116 colon
HCT-15 colon = system: HCT-15 colon
HL-60(TB) leukemia = system: HL-60(TB) leukemia
HOP-62 NSCLC = system: HOP-62 NSCLC
HOP-92 NSCLC = system: HOP-92 NSCLC
HS 578T breast = system: HS 578T breast
K-562 leukemia = system: K-562 leukemia
KM12 colon = system: KM12 colon
LOX IMVI melanoma = system: LOX IMVI melanoma
M14 melanoma = system: M14 melanoma
MCF7 breast = system: MCF7 breast
MDA-MB-231 breast = system: MDA-MB-231 breast
MDA-MB-435 = system: MDA-MB-435
NCI-H23 lung = system: NCI-H23 lung
NCI-H460 lung = system: NCI-H460 lung
NCI/ADR-RES ovarian = system: NCI/ADR-RES ovarian
OVCAR-3 ovarian = system: OVCAR-3 ovarian
OVCAR-5 ovarian = system: OVCAR-5 ovarian
OVCAR-8 ovarian = system: OVCAR-8 ovarian
PC-3 prostate = system: PC-3 prostate
RPMI-8226 leukemia = system: RPMI-8226 leukemia
SF-268 CNS = system: SF-268 CNS
SF-295 CNS = system: SF-295 CNS
SF-539 CNS = system: SF-539 CNS
SK-MEL-5 melanoma = system: SK-MEL-5 melanoma
SK-OV-3 ovarian = system: SK-OV-3 ovarian
SN12C renal = system: SN12C renal
SNB-19 CNS = system: SNB-19 CNS
SW-620 colon = system: SW-620 colon
T-47D breast = system: T-47D breast
TK-10 renal = system: TK-10 renal
U251 CNS = system: U251 CNS
UACC-257 melanoma = system: UACC-257 melanoma
UACC-62 melanoma = system: UACC-62 melanoma
UO-31 renal = system: UO-31 renal
A498 renal = system: A498 renal
CCRF-CEM leukemia = system: CCRF-CEM leukemia
HCC-2998 colon = system: HCC-2998 colon
HT29 colon = system: HT29 colon
IGROV1 ovarian = system: IGROV1 ovarian
MALME-3M melanoma = system: MALME-3M melanoma
MOLT-4 leukemia = system: MOLT-4 leukemia
NCI-H226 lung = system: NCI-H226 lung
NCI-H522 lung = system: NCI-H522 lung
OVCAR-4 ovarian = system: OVCAR-4 ovarian
SK-MEL-2 melanoma = system: SK-MEL-2 melanoma
SK-MEL-28 melanoma = system: SK-MEL-28 melanoma
SNB-75 CNS = system: SNB-75 CNS

CCSc1nc2[nH]c(=S)[nH]c(=S)c2c(-c2ccc(OC)c(OC)c2)c1C#N
GI50 (786-0 renal): 16.5 µM
TGI (786-0 renal): > 50 µM
GI50 (A549 NSCLC): 14.8 µM
TGI (A549 NSCLC): > 50 µM
GI50 (ACHN renal): 17.2 µM
TGI (ACHN renal): > 50 µM
GI50 (BT-549 breast): 14.6 µM
TGI (BT-549 breast): 46.8 µM
GI50 (CAKI-1 renal): 17.4 µM
TGI (CAKI-1 renal): > 50 µM
GI50 (COLO 205 colon): 14.2 µM
TGI (COLO 205 colon): 45.2 µM
GI50 (DU-145 prostate): 21.8 µM
TGI (DU-145 prostate): > 50 µM
GI50 (EKVX NSCLC): 17 µM
TGI (EKVX NSCLC): > 50 µM
GI50 (HCT-116 colon): 18.2 µM
TGI (HCT-116 colon): > 50 µM
GI50 (HCT-15 colon): 16.5 µM
TGI (HCT-15 colon): > 50 µM
GI50 (HL-60(TB) leukemia): 16.1 µM
TGI (HL-60(TB) leukemia): > 50 µM
GI50 (HOP-62 NSCLC): 19.8 µM
TGI (HOP-62 NSCLC): > 50 µM
GI50 (HOP-92 NSCLC): 19 µM
TGI (HOP-92 NSCLC): > 50 µM
GI50 (HS 578T breast): 13.2 µM
TGI (HS 578T breast): 45.8 µM
GI50 (K-562 leukemia): 9.68 µM
TGI (K-562 leukemia): 24.3 µM
GI50 (KM12 colon): 21.9 µM
TGI (KM12 colon): > 50 µM
GI50 (LOX IMVI melanoma): 14.5 µM
TGI (LOX IMVI melanoma): > 50 µM
GI50 (M14 melanoma): 15.2 µM
TGI (M14 melanoma): > 50 µM
GI50 (MCF7 breast): 22.1 µM
TGI (MCF7 breast): > 50 µM
GI50 (MDA-MB-231 breast): 9.75 µM
TGI (MDA-MB-231 breast): 40.3 µM
GI50 (MDA-MB-435): 10.5 µM
TGI (MDA-MB-435): 42.5 µM
GI50 (NCI-H23 lung): 18.6 µM
TGI (NCI-H23 lung): > 50 µM
GI50 (NCI-H460 lung): 21 µM
TGI (NCI-H460 lung): > 50 µM
GI50 (NCI/ADR-RES ovarian): 14.7 µM
TGI (NCI/ADR-RES ovarian): 32.8 µM
GI50 (OVCAR-3 ovarian): 11 µM
TGI (OVCAR-3 ovarian): 34.6 µM
GI50 (OVCAR-5 ovarian): > 50 µM
TGI (OVCAR-5 ovarian): > 50 µM
GI50 (OVCAR-8 ovarian): 18.9 µM
TGI (OVCAR-8 ovarian): > 50 µM
GI50 (PC-3 prostate): 22.6 µM
TGI (PC-3 prostate): > 50 µM
GI50 (RPMI-8226 leukemia): 16.8 µM
TGI (RPMI-8226 leukemia): > 50 µM
GI50 (SF-268 CNS): 15.9 µM
TGI (SF-268 CNS): 46.4 µM
GI50 (SF-295 CNS): 18.9 µM
TGI (SF-295 CNS): > 50 µM
GI50 (SF-539 CNS): 14.8 µM
TGI (SF-539 CNS): 35.4 µM
GI50 (SK-MEL-5 melanoma): 6.86 µM
TGI (SK-MEL-5 melanoma): 21.5 µM
GI50 (SK-OV-3 ovarian): 21.1 µM
TGI (SK-OV-3 ovarian): > 50 µM
GI50 (SN12C renal): 16.9 µM
TGI (SN12C renal): > 50 µM
GI50 (SNB-19 CNS): 21.4 µM
TGI (SNB-19 CNS): > 50 µM
GI50 (SW-620 colon): 26.5 µM
TGI (SW-620 colon): > 50 µM
GI50 (T-47D breast): 23.5 µM
TGI (T-47D breast): > 50 µM
GI50 (TK-10 renal): 43.5 µM
TGI (TK-10 renal): > 50 µM
GI50 (U251 CNS): 17.8 µM
TGI (U251 CNS): > 50 µM
GI50 (UACC-257 melanoma): 16.5 µM
TGI (UACC-257 melanoma): 43.7 µM
GI50 (UACC-62 melanoma): 14.3 µM
TGI (UACC-62 melanoma): > 50 µM
GI50 (UO-31 renal): 11.7 µM
TGI (UO-31 renal): 36 µM

O=C1C[C@@H](c2ccc(O)cc2)[C@@]2(O1)C(=O)O[C@H]([C@@H](O)CO)[C@@H]2O
TGI (786-0 renal): > 100 µM
TGI (A498 renal): > 100 µM
TGI (A549 NSCLC): > 100 µM
TGI (ACHN renal): > 100 µM
TGI (BT-549 breast): > 100 µM
TGI (CAKI-1 renal): > 100 µM
TGI (CCRF-CEM leukemia): > 100 µM
TGI (COLO 205 colon): > 100 µM
TGI (DU-145 prostate): > 100 µM
TGI (EKVX NSCLC): > 100 µM
TGI (HCC-2998 colon): > 100 µM
TGI (HCT-116 colon): > 100 µM
TGI (HCT-15 colon): > 100 µM
TGI (HL-60(TB) leukemia): > 100 µM
TGI (HOP-92 NSCLC): > 100 µM
TGI (HS 578T breast): > 100 µM
TGI (HT29 colon): > 100 µM
TGI (IGROV1 ovarian): > 100 µM
TGI (K-562 leukemia): > 100 µM
TGI (KM12 colon): > 100 µM
TGI (LOX IMVI melanoma): > 100 µM
TGI (M14 melanoma): > 100 µM
TGI (MALME-3M melanoma): > 100 µM
TGI (MCF7 breast): > 100 µM
TGI (MDA-MB-231 breast): > 100 µM
TGI (MDA-MB-435): > 100 µM
TGI (MOLT-4 leukemia): > 100 µM
TGI (NCI-H226 lung): > 100 µM
TGI (NCI-H23 lung): > 100 µM
TGI (NCI-H460 lung): > 100 µM
TGI (NCI-H522 lung): > 100 µM
TGI (NCI/ADR-RES ovarian): > 100 µM
TGI (OVCAR-3 ovarian): > 100 µM
TGI (OVCAR-4 ovarian): > 100 µM
TGI (OVCAR-5 ovarian): > 100 µM
TGI (OVCAR-8 ovarian): > 100 µM
TGI (PC-3 prostate): > 100 µM
TGI (RPMI-8226 leukemia): > 100 µM
TGI (SF-268 CNS): > 100 µM
TGI (SF-295 CNS): > 100 µM
TGI (SF-539 CNS): > 100 µM
TGI (SK-MEL-2 melanoma): > 100 µM
TGI (SK-MEL-28 melanoma): > 100 µM
TGI (SK-MEL-5 melanoma): > 100 µM
TGI (SK-OV-3 ovarian): > 100 µM
TGI (SN12C renal): > 100 µM
TGI (SNB-19 CNS): > 100 µM
TGI (SNB-75 CNS): > 100 µM
TGI (SW-620 colon): > 100 µM
TGI (T-47D breast): > 100 µM
TGI (TK-10 renal): > 100 µM
TGI (U251 CNS): > 100 µM
TGI (UACC-257 melanoma): > 100 µM
TGI (UACC-62 melanoma): > 100 µM
TGI (UO-31 renal): > 100 µM
